Test results taken from patent US20130065818A1, “Arylamide Compounds And Compositions And Uses Thereof” (POLYMEDIX, priority 2006, published 2013).
“And” between values parts separate entries of the source, which are not always exact repeats. Equal entries are not always repeated.

Columns and labels:
Assay in all cases: MIC, 25 ocular isolates, broth microdilution (Example 8)
Assay type in all cases: cell-based
Haemophilus influenzae = conditions: for Minimum MIC / Maximum MIC / Mean MIC: descriptive statistics, n=25; for Maximum MIC / Mean MIC / Median MIC: >64 replaced with 128; for Median MIC: n=25 isolates
Experimental: (§1) HTM (Haemophilus Test Medium) in tubes was inoculated with 25 ocular isolates of Haemophilus influenzae plus two controls (Staphylococcus aureus and E. coli) and incubated at 37° C. overnight. Additionally, Mueller-Hinton Broth in tubes was inoculated with two controls (Staphylococcus aureus and E. coli) and incubated at 37° C. overnight on a shaker set at 250 rpm.
(§2) On the day of testing, a 640 μg/ml (1280 μg/ml for Serratia marcescens and Pseudomonas aeruginosa) concentration was prepared from a 1% stock solution in 0.01% acetic acid, 0.2% BSA in polypropylene tubes.
(§3) Serial doubling dilutions in 0.01% acetic acid, 0.2% BSA in 96 well polypropylene plates, which are used as reservoirs for the inoculation of the test plates, were carried out to obtain serial dilutions of test agents at 10 times the required test concentrations: 640, 320, 160, 80, 40, 20, 10, 5, 2.5, 1.25, and 0.625 μg/ml (1280, 640, 320, 160, 80, 40, 20, 10, 5, 2.5, and 1.25 μg/ml for Serratia marcescens and Pseudomonas aeruginosa).
(§4) Ten μl of diluted 10×test agents was added to each well of one row of the 96 well polypropylene plates from column 2 to column 12 (column 1 is a control for bacteria alone, with no peptide). Test agent concentrations in columns 2-12 were as follows: 64, 32, 16, 8, 4, 2, 1, 0.5, 0.25, 0.125, and 0.0625 μg/ml (128, 64, 32, 16, 8, 4, 2, 1, 0.5, 0.25, and 0.125 μg/ml for Serratia marcescens and Pseudomonas aeruginosa). The same peptide was in each of the 8 rows. One plate contained dilutions of one test agent and 8 bacterial isolates.
On the day of testing, the overnight bacterial broth cultures of Haemophilus species was diluted in 5 ml of trypticase soy broth to yield turbidity equal to a 0.5 McFarland standard. The final inoculum for MIC testing for Haemophilus species was achieved by placing 0.1 ml of the turbidity adjusted sample to 5 ml of HTM medium.
(§5) Ninety μl of the bacterial suspensions was dispensed in each well from column 1 to column 12. Each bacterial isolate was placed in one row of a 96 well polypropylene plate containing the test agents. The plates were placed on shaker at 15 minutes at room temperature, and then incubated at 37° C. overnight. MICs were determined visually as the lowest concentration of drug that inhibits visible bacterial growth.

Streptococcus pneumoniae = conditions: 25 isolates; >64 was Replaced with 128
Experimental: as §1, with “Mueller-Hinton Broth supplemented with 2% lysed horse blood” for “HTM (Haemophilus Test Medium)”, “Streptococcus pneumoniae, Streptococcus viridans group, and Moraxella species (including Moraxella catarrhalis)” for “Haemophilus influenzae”
as §2, §3, §4
(§6) On the day of testing, the overnight bacterial broth cultures of Streptococcus pneumoniae, Streptococcus viridans and Moraxella species (including Moraxella catarrhalis) plus two controls (Staphylococcus aureus and E. coli) were diluted in 5 ml of trypticase soy broth to yield turbidity equal to a 0.5 McFarland standard. The final inoculum for MIC testing for Streptococcus pneumoniae, Streptococcus viridans and Moraxella species (including Moraxella catarrhalis) was achieved by placing 0.1 ml of the turbidity adjusted sample to 5 ml of Mueller-Hinton broth containing 2% lysed horse red blood cells.
as §5

[1] = tested on: Moraxella species (including Moraxella catarrhalis); conditions: for Minimum MIC / Maximum MIC / Mean MIC: descriptive statistics, n=25; for Maximum MIC / Mean MIC / Median MIC: >64 replaced with 128; for Median MIC: n=25 isolates
Experimental: as §1, with “Mueller-Hinton Broth supplemented with 2% lysed horse blood” for “HTM (Haemophilus Test Medium)”, “Streptococcus pneumoniae, Streptococcus viridans group, and Moraxella species (including Moraxella catarrhalis)” for “Haemophilus influenzae”
as §2, §3, §4, §6, §5

[2] = tested on: Streptococcus viridans group; conditions: 25 isolates; >64 was Replaced with 128
Experimental: as §1, with “Mueller-Hinton Broth supplemented with 2% lysed horse blood” for “HTM (Haemophilus Test Medium)”, “Streptococcus pneumoniae, Streptococcus viridans group, and Moraxella species (including Moraxella catarrhalis)” for “Haemophilus influenzae”
as §2, §3, §4, §6, §5

[3] = tested on: Staphylococcus aureus fluoroquinolone-susceptible; design: Mean MIC (Descriptive Statistics) / Minimum MIC (Descriptive Statistics) / Maximum MIC (Descriptive Statistics): unit: µg/mL; conditions: 25 isolates
Experimental: (§7) • Mueller-Hinton Broth in tubes was inoculated with 25 ocular isolates of Staphylococcus aureus fluoroquinolone-susceptible, Staphylococcus aureus fluoroquinolone-resistant, Staphylococcus epidermidis (Coagulase-negative Staphylococcus) fluoroquinolone-susceptible, Staphylococcus epidermidis (Coagulase-negative Staphylococcus) fluoroquinolone-resistant, Pseudomonas aeruginosa and Serratia marcescens, plus two controls (Staphylococcus aureus and E. coli) and incubated at 37° C. overnight on a shaker set at 250 rpm.
as §2, §3, §4
(§8) On the day of testing, the overnight bacterial broth cultures of Staphylococcus aureus fluoroquinolone-susceptible, Staphylococcus aureus fluoroquinolone-resistant, Staphylococcus epidermidis (Coagulase-negative Staphylococcus) fluoroquinolone-susceptible, Staphylococcus epidermidis (Coagulase-negative Staphylococcus) fluoroquinolone-resistant, Serratia marcescens, and Pseudomonas aeruginosa, plus two controls (Staphylococcus aureus and E. coli) were diluted in 5 ml of trypticase soy broth to yield turbidity equal to a 0.5 McFarland standard. The final inoculum for MIC testing for Staphylococcus aureus fluoroquinolone-susceptible, Staphylococcus aureus fluoroquinolone-resistant, Staphylococcus epidermidis (Coagulase-negative Staphylococcus) fluoroquinolone-susceptible, Staphylococcus epidermidis (Coagulase-negative Staphylococcus) fluoroquinolone-resistant, Serratia marcescens, and Pseudomonas aeruginosa was achieved by placing 0.05 ml of the turbidity adjusted sample to 5 ml of Mueller-Hinton broth.
as §5

Serratia marcescens = conditions: 25 isolates; >128 was Replaced with 256
Experimental: as §7, §2, §3, §4, §8, §5

Pseudomonas aeruginosa = conditions: 25 isolates; >128 was Replaced with 256
Experimental: as §7, §2, §3, §4, §8, §5

[4] = tested on: Staphylococcus aureus fluoroquinolone-resistant; conditions: 25 isolates
Experimental: as §7, §2, §3, §4, §8, §5

[5] = tested on: Staphylococcus epidermidis (Coagulase-negative Staphylococcus) fluoroquinolone-resistant; conditions: 25 isolates; <0.0625 was Replaced with 0.03125
Experimental: as §7, §2, §3, §4, §8, §5

[6] = tested on: Staphylococcus epidermidis (Coagulase-negative Staphylococcus) fluoroquinolone-susceptible; conditions: 25 isolates; <0.0625 was Replaced with 0.03125
Experimental: as §7, §2, §3, §4, §8, §5

Structure (SMILES)	Minimum MIC (Haemophilus influenzae) [µg/mL]	Maximum MIC (Haemophilus influenzae) [µg/mL]	Mean MIC (Haemophilus influenzae) [µg/mL]	Median MIC (Haemophilus influenzae)	Maximum MIC (Descriptive Statistics) (Streptococcus pneumoniae) [µg/mL]	Mean MIC (Descriptive Statistics) (Streptococcus pneumoniae) [µg/mL]	Median MIC (Descriptive Statistics / Mann-Whitney) (Streptococcus pneumoniae)	Minimum MIC (Descriptive Statistics) (Streptococcus pneumoniae) [µg/mL]	Minimum MIC [1] [µg/mL]	Maximum MIC [1] [µg/mL]	Mean MIC [1] [µg/mL]	Median MIC [1] [µg/mL]	Maximum MIC (Descriptive Statistics) [2] [µg/mL]	Mean MIC (Descriptive Statistics) [2] [µg/mL]	Median MIC (Descriptive Statistics / Mann-Whitney) [2]	Minimum MIC (Descriptive Statistics) [2] [µg/mL]	Maximum MIC (Descriptive Statistics) [3]	Mean MIC (Descriptive Statistics) [3]	Median MIC (Descriptive Statistics / Mann-Whitney) [3]	Minimum MIC (Descriptive Statistics) [3]	other results
N=C(N)NCCCCC(=O)Nc1cc(C(F)(F)F)cc(NC(=O)c2cnc(C(=O)Nc3cc(C(F)(F)F)cc(NC(=O)CCCCNC(=N)N)c3SCCN)cn2)c1SCCN [Olig 5]	2.0	128.0	48.6	16.0 µg/mL and 16.00 µg/mL	128	10.6	4.00	0.5	0.13	128.00	13.26	0.50	128	36.8	16.00	0.5	0.5000	0.2450	0.2500	0.1250	Maximum MIC (Descriptive Statistics) (Serratia marcescens): 256 µg/mL; Mean MIC (Descriptive Statistics) (Serratia marcescens): 233 µg/mL; Median MIC (Descriptive Statistics / Mann-Whitney) (Serratia marcescens): 256.0; Minimum MIC (Descriptive Statistics) (Serratia marcescens): 8 µg/mL; Maximum MIC (Descriptive Statistics) (Pseudomonas aeruginosa): 256 µg/mL; Mean MIC (Descriptive Statistics) (Pseudomonas aeruginosa): 85.9 µg/mL; Median MIC (Descriptive Statistics / Mann-Whitney) (Pseudomonas aeruginosa): 64.0; Minimum MIC (Descriptive Statistics) (Pseudomonas aeruginosa): 4 µg/mL; Maximum MIC (Descriptive Statistics) [4]: 0.5000; Mean MIC (Descriptive Statistics) [4]: 0.2900; Median MIC (Descriptive Statistics / Mann-Whitney) [4]: 0.2500; Minimum MIC (Descriptive Statistics) [4]: 0.1250; Maximum MIC (Descriptive Statistics) [5]: 0.5000; Mean MIC (Descriptive Statistics) [5]: 0.1475; Median MIC (Descriptive Statistics / Mann-Whitney) [5]: 0.125; Minimum MIC (Descriptive Statistics) [5]: 0.0313; Maximum MIC (Descriptive Statistics) [6]: 0.2500; Mean MIC (Descriptive Statistics) [6]: 0.1375; Median MIC (Descriptive Statistics / Mann-Whitney) [6]: 0.125; Minimum MIC (Descriptive Statistics) [6]: 0.0313
N=C(N)NCCCCC(=O)Nc1cc(C(F)(F)F)cc(NC(=O)c2cc(C(=O)Nc3cc(C(F)(F)F)cc(NC(=O)CCCCNC(=N)N)c3O[C@@H]3CCNC3)ncn2)c1O[C@@H]1CCNC1 [Olig 4]	2.00	32.00	8.56	8.00 µg/mL	128	6.08	1.00	0.5	0.50	128.00	21.42	4.00	32	5.84	4.00	1	0.5000	0.2850	0.2500	0.1250	Maximum MIC (Descriptive Statistics) (Serratia marcescens): 32 µg/mL; Mean MIC (Descriptive Statistics) (Serratia marcescens): 12.4 µg/mL; Median MIC (Descriptive Statistics / Mann-Whitney) (Serratia marcescens): 8.00; Minimum MIC (Descriptive Statistics) (Serratia marcescens): 0.25 µg/mL; Maximum MIC (Descriptive Statistics) (Pseudomonas aeruginosa): 8 µg/mL; Mean MIC (Descriptive Statistics) (Pseudomonas aeruginosa): 3.54 µg/mL; Median MIC (Descriptive Statistics / Mann-Whitney) (Pseudomonas aeruginosa): 4.00; Minimum MIC (Descriptive Statistics) (Pseudomonas aeruginosa): 0.5 µg/mL; Maximum MIC (Descriptive Statistics) [4]: 1.0000; Mean MIC (Descriptive Statistics) [4]: 0.3200; Median MIC (Descriptive Statistics / Mann-Whitney) [4]: 0.2500; Minimum MIC (Descriptive Statistics) [4]: 0.1250; Maximum MIC (Descriptive Statistics) [5]: 0.2500; Mean MIC (Descriptive Statistics) [5]: 0.1300; Median MIC (Descriptive Statistics / Mann-Whitney) [5]: 0.125; Minimum MIC (Descriptive Statistics) [5]: 0.0313; Maximum MIC (Descriptive Statistics) [6]: 0.2500; Mean MIC (Descriptive Statistics) [6]: 0.1388; Median MIC (Descriptive Statistics / Mann-Whitney) [6]: 0.125; Minimum MIC (Descriptive Statistics) [6]: 0.0313
